Assays:
Settings in all cases: exposure time: 90 min
30145 [1] = donor line of iPSC-derived cardiomyocytes; test: POD (EC05) for increase in beat frequency (positive chronotrope) vs vehicle; higher = less potent (higher point of departure)
Procedure, shortened: (§1)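 A FLIPR Tetra recorded Ca2+ flux in dye-loaded human iPSC-derived cardiomyocytes from 16 donors before and after 90 min at 37 °C with 0.1, 1, 10 and 100 µM (final concentrations, 0.5% DMSO). Vehicle-normalised beat frequency, decay-to-rise ratio or peak frequency were fitted with hierarchical Bayesian Hill models to give donor-specific points of departure. The threshold was a 5% change, or for peak frequency a 95% loss.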

30171 = donor line of iPSC-derived cardiomyocytes; test: POD (EC05) for increase in Ca2+ transient decay-to-rise ratio (QT prolongation) vs vehicle; higher = less potent (higher point of departure)
Experimental: (§2)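 Human iPSC-derived cardiomyocytes from 16 donors were exposed for 90 min at 37 °C to each PFAS at 0.1, 1, 10 and 100 µM in 0.5% DMSO, 384-well plates. Kinetic Ca2+ flux (FLIPR) and Hoechst nuclei counts were normalised to vehicle wells and fitted with a hierarchical Bayesian Hill model to give donor-specific PODs: EC05 for beat-rate increase or decrease and for decay-to-rise ratio increase (QT proxy), EC95 for peak-frequency loss (asystole), EC10 for total cell number loss. 0.03 µM is the lower bound.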

1518 = donor line of iPSC-derived cardiomyocytes; test: as above
Experimental: as §2

1434 [2] = donor line of iPSC-derived cardiomyocytes; test: as above
Experimental: as §2

1392 [3] = donor line of iPSC-derived cardiomyocytes; test: as above
Experimental: as §2

1368 = donor line of iPSC-derived cardiomyocytes; test: as above
Experimental: as §2

1309 = donor line of iPSC-derived cardiomyocytes; test: as above
Experimental: as §2

30145 [4] = test: as above
Experimental: as §2

1083 [5] = donor line of iPSC-derived cardiomyocytes; test: as above
Experimental: as §2

1565 = donor line of iPSC-derived cardiomyocytes; test: as above
Experimental: as §2

20032 = donor line of iPSC-derived cardiomyocytes; test: as above
Experimental: as §2

20084 = donor line of iPSC-derived cardiomyocytes; test: as above
Experimental: as §2

1535 = donor line of iPSC-derived cardiomyocytes; test: as above
Experimental: as §2

1118 = donor line of iPSC-derived cardiomyocytes; test: as above
Experimental: as §2

11235 = donor line of iPSC-derived cardiomyocytes; test: as above
Experimental: as §2

1516 = donor line of iPSC-derived cardiomyocytes; test: as above
Experimental: as §2

1434 [6] = test: POD (EC05) for decrease in beat frequency (negative chronotrope) vs vehicle; higher = less potent (higher point of departure)
Procedure, shortened: as §1

1392 [7] = test: as above
Procedure, shortened: as §1

1083 [8] = test: as above
Procedure, shortened: as §1

1531 = donor line of iPSC-derived cardiomyocytes; test: POD (EC05) for increase in Ca2+ transient decay-to-rise ratio (QT prolongation) vs vehicle; higher = less potent (higher point of departure)
Experimental: as §2

Structure (SMILES)	POD vs vehicle 30145 [1] [µM]	POD vs vehicle 30171 [µM]	POD vs vehicle 1518 [µM]	POD vs vehicle 1434 [2] [µM]	POD vs vehicle 1392 [3] [µM]	POD vs vehicle 1368 [µM]	POD vs vehicle 1309 [µM]	POD vs vehicle 30145 [4] [µM]	POD vs vehicle 1083 [5] [µM]	POD vs vehicle 1565 [µM]	POD vs vehicle 20032 [µM]	POD vs vehicle 20084 [µM]	POD vs vehicle 1535 [µM]	POD vs vehicle 1118 [µM]	POD vs vehicle 11235 [µM]	POD vs vehicle 1516 [µM]	POD vs vehicle 1434 [6] [µM]	POD vs vehicle 1392 [7] [µM]	POD vs vehicle 1083 [8] [µM]	POD vs vehicle 1531 [µM]
O=S(=O)([O-])C(F)(F)C(F)(F)C(F)(F)C(F)(F)F.[K+] [Potassium_perfluorobutanesulfonate]	> 100	> 100	> 100	> 100	> 100	> 100	> 100	> 100	> 100	> 100	> 100	> 100	> 100	> 100	> 100	> 100	> 100	> 100	> 100	–
NC(=O)C(F)(F)C(F)(F)C(F)(F)C(F)(F)C(F)(F)C(F)(F)C(F)(F)F [Perfluorooctanamide]	> 100	> 100	–	> 100	> 100	> 100	> 100	> 100	> 100	> 100	–	–	> 100	> 100	> 100	> 100	> 100	> 100	> 100	–
OCC(F)(F)C(F)(F)C(F)(F)CO [Hexafluoroamylene_glycol]	–	> 100	–	> 100	> 100	> 100	> 100	> 100	> 100	> 100	> 100	> 100	> 100	> 100	> 100	–	> 100	> 100	> 100	> 100
O=C(O)C(F)(F)OC(F)(F)C(F)(F)OC(F)(F)F [Perfluoro-3,6-dioxaheptanoic_acid]	–	> 100	–	> 100	> 100	> 100	> 100	> 100	> 100	> 100	> 100	> 100	> 100	> 100	> 100	–	> 100	> 100	> 100	> 100
OCC(F)(F)C(F)(F)C(F)(F)C(F)(F)C(F)(F)C(F)(F)F [6:1 Fluorotelomer alcohol]	> 100	> 100	–	> 100	> 100	> 100	> 100	> 100	> 100	> 100	> 100	> 100	> 100	> 100	> 100	> 100	21.9	> 100	24.6	–
OCC(F)(F)OC(F)(F)C(F)(F)OC(F)(F)C(F)(F)OC(F)(F)F [Fluorinated_triethylene_glycol_monomethyl_ether]	–	> 100	> 100	> 100	> 100	> 100	> 100	> 100	> 100	> 100	> 100	> 100	> 100	> 100	> 100	> 100	25.3	> 100	> 100	–
NC(=O)C(F)(F)C(F)(F)C(F)(F)F [Heptafluorobutyramide]	–	> 100	–	> 100	> 100	> 100	> 100	> 100	> 100	> 100	–	> 100	> 100	> 100	> 100	–	> 100	> 100	> 100	–
O=C(O)C(F)(F)C(F)(F)C(F)(F)C(F)(F)C(F)(F)C(F)(F)F [Perfluoroheptanoic_acid]	> 100	> 100	–	> 100	> 100	> 100	> 100	> 100	> 100	> 100	> 100	> 100	> 100	> 100	> 100	–	> 100	> 100	> 100	–
O=C(O)C(F)(F)C(F)(F)C(F)(F)C(F)(F)C(=O)O [Octafluoroadipic_acid]	> 100	> 100	> 100	> 100	> 100	> 100	> 100	> 100	> 100	> 100	> 100	> 100	> 100	> 100	> 100	> 100	> 100	> 100	> 100	–
O=C(O)C(F)(F)C(F)(F)C(F)(F)C(F)(F)C(F)(F)C(F)(F)C(F)(F)C(F)(F)F [Perfluorononanoic_acid]	–	> 100	–	> 100	> 100	> 100	> 100	> 100	> 100	> 100	> 100	> 100	> 100	> 100	> 100	–	20	> 100	> 100	> 100
N=C(N)C(F)(F)C(F)(F)C(F)(F)C(F)(F)C(F)(F)C(F)(F)C(F)(F)F [Perfluorooctanamidine]	> 100	> 100	–	> 100	> 100	> 100	> 100	> 100	> 100	> 100	–	0.145	> 100	> 100	> 100	> 100	> 100	> 100	> 100	–

From the supplement of paper PMC11368000
